Test [1] has as its system Heterodera schachtii. Nature of the test: Heterodera schachtii (sugar beet cyst nematode), nematicide, contact activity: juvenile paralysis in 16-well assay plates. The settings on record: 200 ppm, approx. 500 juveniles per well, 24 hours incubation at 25° C. in darkness, read-out: nematode immobilization compared to the untreated control. It counts as in vivo. Here is the method:
Heterodera schachtii (Sugar Beet Cyst Nematode), Nematicide, Contact Activity
The tested application rate of each compound was 200 ppm. All solutions were brought to a concentration of 400 ppm, respectively, as they were subsequently diluted by adding the equivalent amount of water containing juvenile nematodes. After preparation of the suspensions, 1 ml of each suspension and concentration was transferred to 16-well assay plates with a total of three replicates per treatment. Approximately 500 juveniles of Heterodera schachtii were added in 1 ml of water to each well. Nematodes in water served as controls. The plates were placed in a dark box and stored at room temperature. Nematode paralysis was determined after 24 hours incubation at 25° C. in darkness.

For test [2], the system named is Meloidogyne spp. In words: Meloidogyne spp. (root-knot nematode), nematicide, contact activity, preventive: cucumber seed in filter paper pouch. The class given is in vivo. The settings on record: 288 h, cucumber cv. Toshka seed in pouch, 3000 eggs, twelve days, read-out: reduction of galling compared to the untreated control. As to the method:
Meloidogyne spp. (Root-Knot Nematode) Nematicide, Contact Activity, Preventive. Filter papers (9 cm×4.5 cm) with a small pocket were placed into plastic pouches (12 cm×6 cm). One cucumber cv. Toshka seed was placed in the centre of the filter paper pocket of all the pouches needed for a test. The cucumber seeds in the pouches were treated with test solutions at 200 ppm by pipetting the solution directly over the cucumber seed in the filter paper pocket in the pouch. Prior to application, the compound solution was prepared at twice the concentration required and the egg suspension is prepared with FORL nutrient solution with 3000 eggs/0.5 ml. After applying all the treatments, 3000 eggs (in 0.5 ml of FORL nutrient solution) were pipetted into the pouches. The pouches were incubated in a moist chamber for twelve days and watered regularly to maintain good filter paper moisture essential for the growing cucumber root system. After this period, the filter paper containing the germinated cucumber seedling was removed from the plastic pouch to assess the number of galls caused by Meloidogyne spp. per root system. Phytotoxicity was measured as a reduction of growth of the emerged cucumber seedling in comparison to the control.

Take `O=C(N[C@H]1CC[C@H]1c1ccc(Cl)cc1)c1c(F)cccc1C(F)(F)F` [Compound 61.41, N-[(1S,2S)-2-(4-chlorophenyl)cyclobutyl]-2-fluoro-6-(trifluoromethyl)benzamide]: the pest or weed control at 200 ppm in test [1] is over 75%; in test [2] it was over 80%.
Turning to `Cc1occc1C(=O)N[C@H]1CC[C@H]1c1ccc(Cl)cc1Cl` [Compound 61.64, N-[(1S,2S)-2-(2,4-dichlorophenyl)cyclobutyl]-2-methylfuran-3-carboxamide], the pest or weed control at 200 ppm was over 75% in test [1] and over 80% in test [2].
For `O=C(N[C@H]1CC[C@H]1c1ccc(Cl)cc1Cl)c1c(F)cccc1Cl` [Compound 61.66, 2-chloro-N-[(1S,2S)-2-(2,4-dichlorophenyl)cyclobutyl]-6-fluorobenzamide] the same measures were over 75% and over 80%.
In the same order, the values of `Cc1cccc(F)c1C(=O)N[C@H]1CC[C@H]1c1ccc(Cl)cc1Cl` [Compound 61.69, N-[(1S,2S)-2-(2,4-dichlorophenyl)cyclobutyl]-2-fluoro-6-methylbenzamide] are over 75% and over 80%.
In the same order, the values of `O=C(N[C@H]1CC[C@H]1c1ccc(Cl)cc1Cl)c1ccccc1Br` [Compound 61.8, 2-bromo-N-[(1S,2S)-2-(2,4-dichlorophenyl)cyclobutyl]benzamide] are over 75% and over 80%.
For `Cn1cc(C(=O)N[C@H]2CC[C@H]2c2ccc(Cl)cc2Cl)c(C(F)F)n1` [Compound 61.77, N-[(1S,2S)-2-(2,4-dichlorophenyl)cyclobutyl]-3-(difluoromethyl)-1-methylpyrazole-4-carboxamide], the pest or weed control at 200 ppm in test [1] was over 75%; in test [2], over 80%.
In the same order, the values of `O=C(N[C@H]1CC[C@H]1c1ccc(Cl)cc1Cl)c1ncccc1Br` [Compound 61.60, 3-bromo-N-[(1S,2S)-2-(2,4-dichlorophenyl)cyclobutyl]pyridine-2-carboxamide] are over 75% and over 80%.
In the same order, the values of `COc1cccc(F)c1C(=O)N[C@H]1CC[C@H]1c1ccc(Cl)cc1Cl` [Compound 61.68, N-[(1S,2S)-2-(2,4-dichlorophenyl)cyclobutyl]-2-fluoro-6-methoxybenzamide] are over 75% and over 80%.
As to `Cn1cccc1C(=O)N[C@H]1CC[C@H]1c1ccc(Cl)cc1Cl` [Compound 61.76, N-[(1S,2S)-2-(2,4-dichlorophenyl)cyclobutyl]-1-methylpyrrole-2-carboxamide], the pest or weed control at 200 ppm in test [1] is over 75%; in test [2] it was over 80%.
For `O=C(N[C@H]1CC[C@H]1c1ccc(Cl)cc1Cl)c1ccsc1Cl` [Compound 61.95, 2-chloro-N-[(1S,2S)-2-(2,4-dichlorophenyl)cyclobutyl]thiophene-3-carboxamide] the same measures were over 75% and over 80%.
Turning to `O=C(N[C@H]1CC[C@H]1c1ccc(Cl)cc1Cl)c1sccc1Cl` [Compound 61.79, 3-chloro-N-[(1S,2S)-2-(2,4-dichlorophenyl)cyclobutyl]thiophene-2-carboxamide], the pest or weed control at 200 ppm in test [1] is over 75%.
On the same count and under the same terms, for `O=C(N[C@H]1CC[C@H]1c1ccc(Cl)cc1Cl)c1ncsc1Br` [Compound 61.98, 5-bromo-N-[(1S,2S)-2-(2,4-dichlorophenyl)cyclobutyl]-1,3-thiazole-4-carboxamide] the value was over 75%.
The same measure, in the same setting: for `O=C(N[C@H]1CC[C@H]1c1ccc(F)cc1F)c1ccccc1Br` [Compound 61.116, 2-bromo-N-[(1S,2S)-2-(2,4-difluorophenyl)cyclobutyl]benzamide] the value was over 75%; for `O=C(N[C@H]1CC[C@H]1c1ccc(F)cc1F)c1c(F)cccc1Cl` [Compound 61.117, 2-chloro-N-[(1S,2S)-2-(2,4-difluorophenyl)cyclobutyl]-6-fluorobenzamide], over 75%.
On to `Cc1ncccc1C(=O)N[C@H]1CC[C@H]1c1ccc(Cl)cc1Cl` [Compound 61.7, N-[(1S,2S)-2-(2,4-dichlorophenyl)cyclobutyl]-2-methylpyridine-3-carboxamide], for which the results for the pest or weed control at 200 ppm in test [1] and in test [2] were over 75% and over 80%, respectively.
Consider `O=C(N[C@H]1CC[C@H]1c1ccc(Cl)cc1Cl)C1=C(C(F)(F)F)OCCS1` [Compound 61.85, N-[(1S,2S)-2-(2,4-dichlorophenyl)cyclobutyl]-6-(trifluoromethyl)-2,3-dihydro-1,4-oxathiine-5-carboxamide], for which the pest or weed control at 200 ppm in test [1] is over 75%.
Still for that read-out and setting: the same measure for `O=C(N[C@H]1CC[C@H]1c1ccc(Cl)cc1Cl)c1ccccc1F` [Compound 61.65, N-[(1S,2S)-2-(2,4-dichlorophenyl)cyclobutyl]-2-fluorobenzamide]: over 75%; for `Cc1nccnc1C(=O)N[C@H]1CC[C@H]1c1ccc(F)cc1F` [Compound 61.119, N-[(1S,2S)-2-(2,4-difluorophenyl)cyclobutyl]-3-methylpyrazine-2-carboxamide]: over 75%; for `O=C(N[C@H]1CC[C@H]1c1ccc(F)cc1F)c1sccc1Br` [Compound 61.143, 3-bromo-N-[(1S,2S)-2-(2,4-difluorophenyl)cyclobutyl]thiophene-2-carboxamide]: over 75%.
Still for that read-out and setting: for `O=C(N[C@H]1CC[C@H]1c1ccc(F)cc1F)c1ncccc1Cl` [Compound 61.141, 3-chloro-N-[(1S,2S)-2-(2,4-difluorophenyl)cyclobutyl]pyridine-2-carboxamide] the value was over 75%.
The same measure, in the same setting: the same measure for `O=C(N[C@H]1CC[C@H]1c1ccc(Cl)cc1)c1sccc1Cl` [Compound 61.36, 3-chloro-N-[(1S,2S)-2-(4-chlorophenyl)cyclobutyl]thiophene-2-carboxamide]: over 75%; for `O=C(N[C@H]1CC[C@H]1c1ccc(Cl)cc1Cl)c1nccnc1Cl` [Compound 61.3, 3-chloro-N-[(1S,2S)-2-(2,4-dichlorophenyl)cyclobutyl]pyrazine-2-carboxamide]: over 75%; for `O=C(N[C@H]1CC[C@H]1c1ccc(Cl)cc1Cl)c1c(F)cccc1C(F)(F)F` [Compound 61.84, N-[(1S,2S)-2-(2,4-dichlorophenyl)cyclobutyl]-2-fluoro-6-(trifluoromethyl)benzamide]: over 75%.
`O=C(N[C@H]1CC[C@H]1c1ccc(Cl)cc1)c1ccccc1Br` [Compound 61.21, 2-bromo-N-[(1S,2S)-2-(4-chlorophenyl)cyclobutyl]benzamide]: in test [1], the pest or weed control at 200 ppm is over 75%.
The same measure, in the same setting: the same measure for `O=C(N[C@H]1CC[C@H]1c1ccc(Cl)cc1Cl)c1ncccc1C(F)(F)F` [Compound 61.4, N-[(1S,2S)-2-(2,4-dichlorophenyl)cyclobutyl]-3-(trifluoromethyl)pyridine-2-carboxamide]: over 75%.
The same measure, in the same setting: for `O=C(N[C@H]1CC[C@H]1c1ccc(Cl)cc1)c1ccsc1Cl` [Compound 61.52, 2-chloro-N-[(1S,2S)-2-(4-chlorophenyl)cyclobutyl]thiophene-3-carboxamide] the value was over 75%; for `O=C(N[C@H]1CC[C@H]1c1ccc(Cl)cc1)c1ncccc1Br` [Compound 61.15, 3-bromo-N-[(1S,2S)-2-(4-chlorophenyl)cyclobutyl]pyridine-2-carboxamide], over 75%.
As for `Cc1cccc(F)c1C(=O)N[C@H]1CC[C@H]1c1ccc(Cl)cc1` [Compound 61.25, N-[(1S,2S)-2-(4-chlorophenyl)cyclobutyl]-2-fluoro-6-methylbenzamide], the pest or weed control at 200 ppm in test [1] is over 75%.
On the same count and under the same terms, the same measure for `O=C(N[C@H]1CC[C@H]1c1ccc(Cl)cc1Cl)c1nnccc1C(F)(F)F` [Compound 61.167, N-[(1S,2S)-2-(2,4-dichlorophenyl)cyclobutyl]-4-(trifluoromethyl)pyridazine-3-carboxamide]: over 75%.

For the origin of these results see patent publication USRE50724E1, “4-membered ring carboxamides used as nematicides” (SYNGENTA CROP PROTECTION AG, priority 2013, dated 2026).
